Literature values in patent US20230233634A1, “PROCYANIDINS FOR THE TREATMENT OF ENDOTHELIAL DYSFUNCTION TRIGGERED BY COVID-19” (priority 2020, published 2023).

Test system: iNOS (inducible nitric oxide synthase)
Conditions: direct anti-inflammatory activity

O=C1CCC(Cc2ccc(O)c(O)c2)O1 (stereo not shown) [M1, δ-(3,4-dihydroxy-phenyl)-γ-valerolactone]
iNOS expression and nitrite production: reducing iNOS (inducible nitric oxide synthase) expression and excessive nitrite production
